Data set [1] can be described thus: Pharmacokinetical investigations after intravenous or oral administration. The data set is classed as in vivo. As to conditions: male Wistar rat. Here is the method: Pharmacokinetical Investigations
The pharmacokinetics of the active substances are investigated after intravenous or oral administration of doses in the range from 1 mg/kg intravenously and 3 mg/kg orally to three male Wistar rats per administration route. In order to make a repeated removal of blood possible a catheter is implanted into the jugular vein of the animals on the day before the experiment. The substances are administered intravenously as well as orally as a solution. Thereby, in most cases a plasma formulation (rat plasma with 1-2% ethanol or DMSO, 2 ml/kg) is used for the intravenous administration and a PEG formulation (10% ethanol, 40% PEG 400, 50% water, 5 ml/kg) is used for the oral administration.
After the administration of the active substance blood samples are collected over 24 h via the catheter into heparin-containing sample tubes. Subsequently to the removal of blood the blood samples are centrifuged and the plasma supernatant is pipetted into Eppendorf tubes. The plasma samples are stored at least −15° C. until the analysis takes place.
For the work-up the samples are thawed. The plasma proteins are subsequently precipitated by the addition of acetonitrile which comprises an internal standard. As internal standard a substance from the same structural class is selected which is structurally as similar as possible to the active compound. For the preparation of calibration samples different concentrations of the active substance are added to aliquots of empty plasma and these are worked up together with the unknown samples. Additionally quality control samples with three different concentrations are prepared which serve to validate the analytical procedure.
The determination of the active substance in the samples takes place by high performance liquid chromatography with mass spectrometrical detection (LC/MS-MS). The active substance concentrations in the unknown samples are determined based on their relative peak heights or areas compared to the calibration curve using the program Concalc for Windows (CCW, Integrierte Labordatensysteme, version 2.5 or later, Bayer AG). Subsequently, the pharmacokinetical parameters are calculated from the plasma concentration development over time individualized to an animal using non-compartimental analysis with the aid of the program KINCALC, version 2.50.02 (Bayer AG, 2001).
The following data can be acquired from these tests:
AUC=total area under the drug-concentration over time curve;
Cmax=maximum concentration;

Data set [2] in a line: Anti-HCMV cytopathogenicity test, cytostatic effect on uninfected cells. The data set is classed as cell-based. To be noted: human, NHDF cells (human prepuce fibroblasts), 6 days incubation, visual assessment. Here is the method: (§1) Anti-HCMV (Anti-Human Cytomegalovirus) Cytopathogenicity Tests The test compounds are employed as 50 millimolar (mM) solutions in dimethyl sulfoxide (DMSO). Ganciclovir® serves as reference compound. After the addition of 2 μl of the 50, 5, 0.5 and 0.05 mM DMSO stock solutions respectively to 98 μl portions of cell culture medium in row […] for duplicate determinations, 1:2 dilutions are carried out with 50 μl portions of medium up to row 11 of the 96-well plate. The wells in rows 1 and 12 each contain 50 μl of medium. 150 μl of a suspension of 1×10^4 cells (human prepuce fibroblasts [NHDF]) are then pipetted into each of the wells (row 1=cell control) and, in rows 2-12, a mixture of HCMV-infected and uninfected NHDF cells (M.O.I.=0.001-0.003), i.e. 1-3 infected cells per 1000 uninfected cells. Row 12 (without substance) serves as virus control. The final test concentrations are […]. The plates are incubated at 37° C./5% CO2 for 6 days, i.e. until all the cells in the virus controls are infected (100% cytopathogenic effect [CPE]). The wells are then fixed and stained by the addition of a mixture of formalin and Giemsa's dye (30 min), washed with bidistilled water and dried in a drying oven at 50° C. The plates are then assessed visually using an overhead microscope (plaque multiplier from Technomara). The following data can be obtained from the test plates: CC50 (NHDF)=substance concentration in MM at which no visible cytostatic effects on the cells are evident in comparison with the untreated cell control;
(Damage to the host cells serves as the signal in cytopathic effect assays.)

The next data set concerns HCMV. Kind of data set: Anti-HCMV cytopathogenicity test (CPE inhibition). As to conditions: for EC50: Human betaherpesvirus 5, 144 h, HCMV-infected NHDF cells, M.O.I. 0.001-0.003, 6 days, inhibition of CPE by 50%; for SI HCMV: selectivity index = CC50 (NHDF)/EC50 (HCMV). The data set is classed as cell-based, human cytomegalovirus. Here is the method: as §1, with “plates: EC50 (HCMV)=substance” for “plates: CC50 (NHDF)=substance”, “MM” for “MM at”, “which inhibits” for “which no visible cytostatic effects on”, “the CPE (cytopathic effect) by 50%” for “the cells are evident”, “untreated virus” for “untreated cell”, “control; SI (selectivity index)=CC50 (NHDF)/EC50 (HCMV).” for “control;”

Where [3] appears, read: 3 mg/kg p.o., solution in 10% ethanol, 40% PEG 400, 50% water, 5 ml/kg.

Take `N#CC1(C(=O)Nc2cc(F)cc(NS(=O)(=O)c3ccc(-c4noc(-c5cccc(N)n5)n4)cc3)c2)CC1` [Example 1, N-{3-[({4-[5-(6-Aminopyridin-2-yl)-1,2,4-oxadiazol-3-yl]phenyl}sulfonyl)amino]-5-fluorophenyl}-1-cyanocyclopropanecarboxamide]: the half-life (commonly the time in which the quantity being followed falls by half) in data set [1] (iv, 1.3 mg/kg i.v., solution in rat plasma with 1% DMSO, 2 ml/kg) was 4.26 h. Besides, the clearance in data set [1] (iv, 1.3 mg/kg i.v., solution in rat plasma with 1% DMSO, 2 ml/kg, read-out: CLPlasma (converted)) is 1.07 mL/min/kg. For the same compound, the Vd in data set [1] (iv, 1.3 mg/kg i.v., solution in rat plasma with 1% DMSO, 2 ml/kg, read-out: Vss) is 0.321 L/kg. For the same compound, in data set [1] (1.3 mg/kg i.v., solution in rat plasma with 1% DMSO, 2 ml/kg), the CLBlood worked out at 2.13 mL/min/kg. In data set [1] (setting [3]), the “AUCnorm, p.o.” value was 8.58 kg·h/L and the “Cmax, norm, p.o.” value came out at 1.08 kg/L. In data set [1] (plasma, po, 3 mg/kg p.o., solution in 10% ethanol, 40% PEG 400, 50% water, 5 ml/kg, read-out: F (bioavailability)), the bioavailability (as a rule, the share of a dose that reaches the circulation, judged against a reference dose that is usually intravenous) turned out to be 55.3%. In addition, in data set [2], the CC50 (usually the concentration giving 50% cytotoxicity) at 6 days was determined as 71 µM. Moreover, in the data set on HCMV, the EC50 (as a rule, the concentration at which the effect is half-maximal) is 0.011 µM and the “SI HCMV” value came out at 6450.

`N#CC1(C(=O)Nc2cccc(NS(=O)(=O)c3ccc(-c4noc(-c5cccc(N)n5)n4)cc3)c2)CC1` [Example 2, N-{3-[({4-[5-(6-Aminopyridin-2-yl)-1,2,4-oxadiazol-3-yl]phenyl}sulfonyl)amino]phenyl}-1-cyanocyclopropanecarboxamide] registered a CC50 at 6 days in data set [2] of 141 µM. Moreover, in the data set with HCMV, the EC50 was 0.007 µM and the “SI HCMV” value came out at 20140.

Compound `Cc1c(NC(=O)C2(C#N)CC2)cccc1NS(=O)(=O)c1ccc(-c2noc(-c3cccc(N)n3)n2)cc1` [Example 3, N-{3-[({4-[5-(6-Aminopyridin-2-yl)-1,2,4-oxadiazol-3-yl]phenyl}sulfonyl)amino]-2-methylphenyl}-1-cyanocyclopropanecarboxamide] registered a half-maximal cytotoxic concentration (CC50) at 6 days in data set [2] of 102 µM. In addition, in the data set with HCMV, it took 0.002 µM to reach a half-maximal effect (EC50) and the “SI HCMV” value was determined as 51000.

The compound `Cl.N#CC1(C(=O)Nc2cccc(NS(=O)(=O)c3ccc(C#Cc4cccc(N)n4)cc3)c2)CC1` [Example 4, N-{3-[({4-[(6-Aminopyridin-2-yl)ethynyl]phenyl}sulfonyl)amino]phenyl}-1-cyanocyclopropanecarboxamide Hydrochloride] showed a CC50 at 6 days in data set [2] of 47 µM. For the same compound, in the data set with HCMV, the half-maximal effective concentration (EC50) worked out at 0.021 µM and the “SI HCMV” value worked out at 2240.

`CC(=O)Nc1cccc(-c2nc(-c3ccc(S(=O)(=O)Nc4cc(F)cc(NC(=O)C5(C#N)CC5)c4)cc3)no2)n1` [Example 5, N-{3-[({4-[5-(6-Acetylaminopyridin-2-yl)-1,2,4-oxadiazol-3-yl]phenyl}sulfonyl)amino]-5-fluorophenyl}-1-cyanocyclopropanecarboxamide] returned a CC50 at 6 days in data set [2] of 71 µM. In addition, in the data set with HCMV, a half-maximal response (EC50) required 0.026 µM and the “SI HCMV” value is 2730.

The values above are taken from patent US8318761B2, “Substituted arylsulfonamides as antiviral agents” (Aicuris GmbH & Co. KG, priority 2006, dated 2012).
